Counter-ions that a name gives are not always drawn. Like-named read-outs stand apart in the source and are kept apart here.
Key:
[1] = test system: NCI-H292 lung cancer cells; assay: FDA drug screening, complete media vs cholesterol-free media without statin (TABLE 1); format: cell-based, human
[2] = test system: NCI-H292 lung cancer cells; assay: FDA drug screening, complete media vs cholesterol-free media with simvastatin (TABLE 2); format: cell-based, human
[3] = Complete minus Cholesterol-free, >0 enhanced anti-cancer activity, about 0 neutral, <0 antagonist
[4] = NCI-H292 cells, cholesterol-free media without statin, FDA drug library screen
[5] = NCI-H292 cells, complete media, FDA drug library screen
[6] = NCI-H292 cells, FDA drug library screen, cholesterol-free media with simvastatin 0.04 μM
[7] = NCI-H292 cells, FDA drug library screen, complete media
[8] = complete media vs cholesterol-free media + simvastatin (0.04 μM), >0 enhanced anti-cancer activity, about 0 neutral, <0 antagonist
[9] = complete vs cholesterol-free media, >0 enhanced anti-cancer activity, about 0 neutral, <0 antagonist
[10] = complete vs cholesterol-free media, […]
[11] = complete media minus cholesterol-free media + simvastatin, […]
[12] = NCI-H292 cells, cholesterol-free media without statin
[13] = complete vs cholesterol-free media, greater than 0 enhanced anti-cancer activity, about 0 neutral, below 0 antagonists
[14] = NCI-H292 cells, cholesterol-free media with simvastatin 0.04 μM, cell growth value in FDA drug screen
[15] = NCI-H292 cells, complete media, cell growth value in FDA drug screen
[16] = complete media minus cholesterol-free media + simvastatin, >0 enhanced anti-cancer activity, about 0 neutral, <0 antagonist
[17] = Complete minus Cholesterol-free, greater than 0 enhanced anti-cancer activity, about 0 neutral, below 0 antagonists
[18] = NCI-H292 cells in cholesterol-free media without statin
[19] = NCI-H292 cells in complete media
[20] = NCI-H292 cells, cholesterol-free media with simvastatin 0.04 μM, FDA drug library screen (TABLE 2)
[21] = NCI-H292 cells, complete media, FDA drug library screen (TABLE 2)
[22] = complete media minus cholesterol-free media + simvastatin (0.04 μM), >0 enhanced anti-cancer activity, about 0 neutral, <0 antagonist
[23] = NCI-H292 cells, FDA library drug in cholesterol-free media with simvastatin 0.04 μM
[24] = NCI-H292 cells, FDA library drug in complete media
[25] = complete media vs cholesterol-free media + simvastatin (0.04 μM), […]
[26] = Complete minus Cholesterol-free, […]
[27] = NCI-H292 cells, FDA drug library screen, cholesterol-free media without statin
[28] = Complete minus Cholesterol-free, greater than 0 enhanced anti-cancer activity, about 0 neutral, below 0 antagonist

CCN(CC)C(=S)SSC(=S)N(CC)CC [Disulfiram]
Difference [1, 3]: −0.02
Cholesterol-free [1, 4]: 0.0139
Complete [1, 5]: −0.001922
Cholesterol-free media + simvastatin (0.04 μM) [2, 6]: 0.005061
Complete Media [2, 7]: −0.0784
Difference [2, 8]: −0.08

Saquinavir (Mesylate)
Cholesterol-free [1, 4]: 0.7536
Complete [1, 5]: 1.206
Difference [1, 9]: 0.45
Cholesterol-free media + simvastatin (0.04 μM) [2, 6]: 2.052
Complete Media [2, 7]: 1.925
Difference [2, 8]: −0.13

Pasiniazid
Cholesterol-free [1, 4]: 1.164
Complete [1, 5]: 1.274
Difference [1, 10]: 0.11
Cholesterol-free media + simvastatin (0.04 μM) [2, 6]: 1.047
Complete Media [2, 7]: 1.325
Difference [2, 11]: 0.28

CCC[C@@H]1C[C@@H](C(=O)N[C@@H]([C@H]2O[C@H](SC)[C@H](OP(=O)(O)O)[C@@H](O)[C@H]2O)[C@H](C)Cl)N(C)C1 [Clindamycin (phosphate)]
Cholesterol-free [1, 12]: 1.342
Complete ([1]; NCI-H292 cells, complete media): 0.8969
Difference [1, 13]: −0.44
Cholesterol-free media + simvastatin (0.04 μM) [2, 14]: 1.017
Complete Media [2, 15]: 1.129
Difference [2, 16]: 0.11

O=c1oc2ccccc2c(O)c1Cc1c(O)c2ccccc2oc1=O [Dicoumarol]
Difference [1, 17]: −0.93
Cholesterol-free [1, 18]: 2.049
Complete [1, 19]: 1.114
Cholesterol-free media + simvastatin (0.04 μM) [2, 6]: 0.8973
Complete Media [2, 7]: 1.089
Difference [2, 16]: 0.19

COS(=O)(=O)[O-].C[n+]1c2ccccc2nc2ccccc21 [Phenazine (methylsulfate)]
Difference [1, 3]: −0.01
Cholesterol-free [1, 4]: 0.03605
Complete [1, 5]: 0.02161
Cholesterol-free media + simvastatin (0.04 μM) [2, 20]: 0.07249
Complete Media [2, 21]: 0.06209
Difference [2, 22]: −0.01

COc1cc(C(=O)NS(=O)(=O)c2ccccc2C)ccc1Cc1cn(C)c2ccc(NC(=O)OC3CCCC3)cc12 [Zafirlukast]
Difference [1, 3]: 0.05
Cholesterol-free [1, 4]: 0.8473
Complete [1, 5]: 0.9001
Cholesterol-free media + simvastatin (0.04 μM) [2, 6]: 1.598
Complete Media [2, 7]: 1.505
Difference [2, 8]: −0.09

COc1ccc(C(CN(C)C)C2(O)CCCCC2)cc1 (centres unmarked) [Venlafaxine (hydrochloride)]
Cholesterol-free [1, 12]: 1.049
Complete ([1]; NCI-H292 cells, complete media): 0.7326
Difference [1, 10]: −0.32
Cholesterol-free media + simvastatin (0.04 μM) [2, 23]: 1.551
Complete Media [2, 24]: 1.023
Difference [2, 25]: −0.53

C[N+](C)(C)CCO.O=C([O-])C(O)C(O)C(=O)O (centres unmarked) [Choline (bitartrate)]
Cholesterol-free [1]: 1.646
Complete [1]: 0.8603
Difference [1]: −0.79
Cholesterol-free media + simvastatin (0.04 μM) [2]: 1.34
Complete Media [2]: 1.054
Difference [2]: −0.29

CNNCc1ccc(C(=O)NC(C)C)cc1 [Procarbazine (Hydrochloride)]
Difference [1, 17]: −0.50
Complete [1, 19]: 1.119
Cholesterol-free media + simvastatin (0.04 μM) [2, 6]: 0.7556
Complete Media [2, 7]: 1.193
Difference [2, 16]: 0.44

Eprosartan (mesylate)
Difference [1, 17]: −0.55
Cholesterol-free [1, 18]: 1.415
Complete [1, 19]: 0.8697
Cholesterol-free media + simvastatin (0.04 μM) [2, 20]: 0.8775
Complete Media [2, 21]: 0.8724
Difference [2, 22]: −0.01

O=C([O-])CCSC[C@H]1O[C@@H]2O[C@H]3[C@H](O)[C@@H](O)[C@@H](O[C@H]4[C@H](O)[C@@H](O)[C@@H](O[C@H]5[C@H](O)[C@@H](O)[C@@H](O[C@H]6[C@H](O)[C@@H](O)[C@@H](O[C@H]7[C@H](O)[C@@H](O)[C@@H](O[C@H]8[C@H](O)[C@@H](O)[C@@H](O[C@H]9[C@H](O)C(O)[C@@H](O[C@H]1[C@H](O)[C@H]2O)O[C@@H]9CSCCC(=O)[O-])O[C@@H]8CSCCC(=O)[O-])O[C@@H]7CSCCC(=O)[O-])O[C@@H]6CSCCC(=O)[O-])O[C@@H]5CSCCC(=O)[O-])O[C@@H]4CSCCC(=O)[O-])O[C@@H]3CSCCC(=O)[O-].[Na+].[Na+].[Na+].[Na+].[Na+].[Na+].[Na+].[Na+] (some centres unmarked) [Sugammadex (sodium)]
Difference [1, 26]: −0.11
Cholesterol-free [1, 27]: 1.596
Complete [1, 7]: 1.487
Cholesterol-free media + simvastatin (0.04 μM) ([2]; NCI-H292 cells, cholesterol-free media with simvastatin 0.04 μM, […]): 0.9061
Complete Media ([2]; NCI-H292 cells, complete media, […]): 0.9946
Difference [2, 11]: 0.09

CCCCCCCCCCCC1=C(O)C(=O)C=C(O)C1=O [Embelin]
Difference [1, 17]: −0.48
Cholesterol-free [1, 18]: 1.567
Complete [1, 19]: 1.082
Cholesterol-free media + simvastatin (0.04 μM) [2, 20]: 0.8998
Complete Media [2, 21]: 0.8298
Difference [2, 22]: −0.07

CC(C(=O)O)c1ccc2c(c1)[nH]c1ccc(Cl)cc12 (centres unmarked) [Carprofen]
Difference [1, 28]: −0.18
Cholesterol-free [1, 27]: 1.071
Complete [1, 7]: 0.886
Cholesterol-free media + simvastatin (0.04 μM) [2, 14]: 0.8634
Complete Media [2, 15]: 0.98
Difference [2, 16]: 0.12

NCCCC(O)(P(=O)(O)O)P(=O)(O)O [Alendronic acid]
Cholesterol-free [1, 12]: 1.207
Complete ([1]; NCI-H292 cells, complete media): 0.7802
Difference [1, 13]: −0.43
Cholesterol-free media + simvastatin (0.04 μM) [2, 14]: 0.8926
Complete Media [2, 15]: 0.9547
Difference [2, 16]: 0.06

CC(=O)O[C@H]1[C@H]2O[C@]23[C@@H]2CC[C@]4(O)C[C@@H](O)CC[C@]4(C)[C@H]2CC[C@]3(C)[C@H]1c1ccc(=O)oc1 [Cinobufotalin]
Difference [1, 26]: −0.04
Cholesterol-free [1, 4]: 0.003242
Complete [1, 5]: −0.03407
Cholesterol-free media + simvastatin (0.04 μM) [2, 20]: 0.03115
Complete Media [2, 21]: 0.01046
Difference ([2]; complete media minus cholesterol-free media + simvastatin (0.04 μM), […]): −0.02

CC[C@@]1(O)C(=O)OCc2c1cc1n(c2=O)Cc2cc3ccccc3nc2-1 [Camptothecin]
Difference [1, 26]: −0.01
Cholesterol-free [1, 4]: 0.0145
Complete [1, 5]: 0.005875
Cholesterol-free media + simvastatin (0.04 μM) [2, 6]: −0.11
Complete Media [2, 7]: 0.07415
Difference [2, 11]: 0.18

CCCCCCCC(=O)N[C@H](CN1CCCC1)[C@H](O)c1ccc2c(c1)OCCO2 [Eliglustat]
Difference [1, 3]: −0.30
Cholesterol-free [1, 12]: 1.155
Complete ([1]; NCI-H292 cells, complete media): 0.8552
Cholesterol-free media + simvastatin (0.04 μM) [2, 23]: 1.086
Complete Media [2, 24]: 0.6384
Difference [2, 8]: −0.45

CC(C)=CCC/C(C)=C/CC/C(C)=C/CCC(=O)OC/C=C(\C)CCC=C(C)C [Gefarnate]
Cholesterol-free [1]: 1.413
Complete [1]: 0.9135
Difference [1]: −0.50
Cholesterol-free media + simvastatin (0.04 μM) [2]: 1.714
Complete Media [2]: 1.906
Difference [2]: 0.19

Doxylamine (succinate)
Difference [1, 3]: −0.30
Cholesterol-free [1, 12]: 1.101
Complete ([1]; NCI-H292 cells, complete media): 0.8034
Cholesterol-free media + simvastatin (0.04 μM) [2, 14]: 1.024
Complete Media [2, 15]: 1.092
Difference [2, 16]: 0.07

CC(C)OC(=O)[C@H](C)N[P@](=O)(CO[C@H](C)Cn1cnc2c(N)ncnc21)Oc1ccccc1 [Tenofovir alafenamide]
Cholesterol-free [1]: 1.21
Complete [1]: 0.7227
Difference [1]: −0.49
Cholesterol-free media + simvastatin (0.04 μM) [2]: 0.7269
Complete Media [2]: 0.65
Difference [2]: −0.08

Bleomycin (hydrochloride)
Cholesterol-free [1, 4]: 0.4328
Complete [1, 5]: 0.5195
Difference [1, 10]: 0.09
Cholesterol-free media + simvastatin (0.04 μM) [2, 6]: 0.184
Complete Media [2, 7]: 0.1023
Difference [2, 25]: −0.08

NCC[C@H](O)C(=O)N[C@@H]1C[C@H](N)[C@@H](O[C@H]2O[C@H](CN)[C@@H](O)[C@H](O)[C@H]2O)[C@H](O)[C@H]1O[C@H]1O[C@H](CO)[C@@H](O)[C@H](N)[C@H]1O [Amikacin (disulfate)]
Difference [1, 26]: −0.09
Cholesterol-free [1, 27]: 0.9569
Complete [1, 7]: 0.8685
Cholesterol-free media + simvastatin (0.04 μM) [2, 6]: 0.8392
Complete Media [2, 7]: 1.245
Difference [2, 11]: 0.41

CCOC(=O)[C@H](CCc1ccccc1)N[C@@H](C)C(=O)N1[C@H](C(=O)O)C[C@@H]2CCC[C@@H]21 [Ramipril]
Difference [1, 3]: −0.24
Cholesterol-free [1, 12]: 1.132
Complete ([1]; NCI-H292 cells, complete media): 0.8936
Cholesterol-free media + simvastatin (0.04 μM) [2, 20]: 1.055
Complete Media [2, 21]: 0.9941
Difference [2, 22]: −0.06

Cc1cc2c(s1)Nc1ccccc1N=C2N1CCN(C)CC1 [Olanzapine]
Cholesterol-free [1]: 0.9635
Complete [1]: 0.9217
Difference [1]: −0.04
Cholesterol-free media + simvastatin (0.04 μM) [2]: 1.722
Complete Media [2]: 1.489
Difference [2]: −0.23

CCOC(=O)C1=C[C@]2(CC)CCCN3CCc4c(n1c1ccccc41)[C@@H]32 [Vinpocetine]
Difference [1, 28]: −0.09
Cholesterol-free [1, 27]: 0.912
Complete [1, 7]: 0.8209
Cholesterol-free media + simvastatin (0.04 μM) [2, 14]: 0.854
Complete Media [2, 15]: 0.8952
Difference [2, 16]: 0.04

O=C(/C=C/c1cccc(S(=O)(=O)Nc2ccccc2)c1)NO [Belinostat]
Cholesterol-free [1, 4]: 0.07179
Complete [1, 5]: 0.1605
Difference [1, 9]: 0.09
Cholesterol-free media + simvastatin (0.04 μM) [2, 6]: 0.2409
Complete Media [2, 7]: 0.1471
Difference [2, 8]: −0.09

— patent US20250144067A1, “PERSONALIZED STARVATION THERAPY FOR CANCER” (Faeth Therapeutics, Inc., priority 2021, published 2025)
